From patent US7267953B2, “Method for identification of modulators of pre-adipocyte differentiation” (AstraZeneca AB, priority 2001, dated 2007)

What was measured:
[1] = system: NIH/3T3 mouse fibroblasts; test: Adipocyte differentiation of retrovirus infected NIH/3T3 fibroblasts, Oil Red O staining; assay type: cell-based; conditions: Oil Red O after 10 days
Source text: A classical way of studying the adipocyte differentiating potential of a gene is to overexpress it in either uncommitted NIH/3T3 fibroblasts or in 3T3-L1 preadipocytes using retroviral transfer. The adipocyte differentiating potential can then be assayed by microscopic examination and by staining with lipophilic dyes such as Oil Red O. O/E-1 was thus expressed in mouse NIH/3T3 fibroblasts, 3T3-L1 preadipocytes and mouse embryonic fibroblasts to investigate its adipocyte differentiating potential. cDNAs encoding mouse O/E-1, human O/E-1 and mouse PPARγ2 were cloned in the pBabepuro retrovirus vector. These retrovirus vectors as well as the empty vector were transiently transfected into Phoenix high efficiency packaging cells. Retroviruses containing supernatants were used to infect NIH/3T3 mouse fibroblasts. After puromycin (2 μg/ml) selection for two days, cells were allowed to grow to confluence after which adipogenic inducers were added (DIM, see above), after 10 days cells were stained with the lipophilic dye Oil Red O. As expected PPARγ induced some differentiation of NIH/3T3 mouse fibroblasts into lipid-containing cells that resembled cultured adipocytes in the presence of adipogenic inducers (FIG. 3). […] The ability of human O/E-1 to induce adipocyte differentiation of NIH/3T3 was also tested and found to be similar as that of mouse O/E-1 (Data not shown).

3T3-L1 preadipocytes = test: Adipocyte differentiation of retrovirus infected 3T3-L1 preadipocytes, Oil Red O staining; assay type: cell-based, mouse; conditions: vector or O/E-1 infected 3T3-L1; 0.5 μM in combination with dexamethasone (1 μM); stained at day 3, 4 and 7
Source text: The fibroblastic 3T3-L1 preadipocyte cells have the capability to differentiate to adipocytes when given the proper hormonal stimulation, usually a combination of dexamethasone, insulin and isobutylmethylxanthine, as opposed to NIH/3T3 where overexpression of adipocyte differentiating factors is necessary to get adipocyte development. Untransformed mouse embryonic fibroblasts (MEF) can also be forced to adipocyte differentiation using the same adipogenic factors; the efficiency is however much lower than with 3T3-L1. […] Stable clones were selected 2-3 days using puromycin (2 μg/ml) and surviving cells were grown to confluence. 3T3-L1 cells differentiate to adipocytes at high rate when all adipogenic inducers are present and this could make it difficult discriminate the effect of an additional adipogenic signal. The cells were therefore induced with dexamethasone (1 μM) alone for two days or in combination with darglitazone (0.5 μM) throughout the experiment to get a low differentiation rate. MEF on the other hand develop into adipocytes quite inefficiently and were thus induced with the more powerful adipogenic combination of dexamethasone (1 μM), insulin (5 μg/ml) isobutylmethylxanthine (0.115 mg/ml) and darglitazone (0.5 μM) for two days, insulin and darglitazone for two days and darglitazone alone all through the experiment. […]

[2] = system: mouse embryonic fibroblasts (MEF); test: Adipocyte differentiation of retrovirus infected mouse embryonic fibroblasts (MEF), Oil Red O staining; assay type: cell-based; conditions: Oil Red O at day 13 post-induction
Source text: The fibroblastic 3T3-L1 preadipocyte cells have the capability to differentiate to adipocytes when given the proper hormonal stimulation, usually a combination of dexamethasone, insulin and isobutylmethylxanthine, as opposed to NIH/3T3 where overexpression of adipocyte differentiating factors is necessary to get adipocyte development. Untransformed mouse embryonic fibroblasts (MEF) can also be forced to adipocyte differentiation using the same adipogenic factors; the efficiency is however much lower than with 3T3-L1. […] Stable clones were selected 2-3 days using puromycin (2 μg/ml) and surviving cells were grown to confluence. 3T3-L1 cells differentiate to adipocytes at high rate when all adipogenic inducers are present and this could make it difficult discriminate the effect of an additional adipogenic signal. The cells were therefore induced with dexamethasone (1 μM) alone for two days or in combination with darglitazone (0.5 μM) throughout the experiment to get a low differentiation rate. […] At day 13 post-induction adipate differentiation was measured by Oil Red O staining. […]

Cc1oc(-c2ccccc2)nc1CCC(=O)c1ccc(CC2SC(=O)NC2=O)cc1 (stereo not drawn) [darglitazone]
differentiation into lipid-containing adipocyte-like cells ([1]; PPARγ2 infected NIH/3T3, 0.5 μM present throughout with adipogenic inducers (DIM)): dramatic increase | development to adipocytes ([1]; mouse O/E-1 infected NIH/3T3, adipogenic inducers (DIM), 0.5 μM): greatly enhanced | differentiation into adipocytes ([1]; vector infected NIH/3T3, adipogenic inducers (DIM), 0.5 μM): No differentiation was observed | overall rate of adipocyte differentiation (3T3-L1 preadipocytes): overall rate of differentiation was enhanced | adipocyte differentiation ([2]; human O/E-1 infected MEF): even further enhanced differentiation | number of cells that developed into adipocytes ([2]; vector infected MEF, compared with vehicle): increased the number of cells that developed into adipocytes
